Assays:
Assay in all cases: Kinase panel (Carna)
Assay type in all cases: biochemical
NuaK2 = biological target: T1, NuaK2 (Homo sapiens, UniProt Q9H093)
T1 construct: purchased Carna Biosciences

EEF2K = biological target: T2, EEF2K (Homo sapiens, UniProt O00418)
T2 construct: purchased Carna Biosciences
Excerpt: (§1) Detailed information on the assay conditions is available on the website of Carna Biosciences (http://www.carnabio.com).

PBK = biological target: T3, PBK (Homo sapiens, UniProt Q96KB5)
T3 construct: purchased Carna Biosciences
Excerpt: as §1

HIPK2 = biological target: T4, HIPK2 (Homo sapiens, UniProt Q9H2X6)
T4 construct: purchased Carna Biosciences
Excerpt: as §1

CaMK2γ = biological target: T5, CaMK2γ (Homo sapiens, UniProt Q13555)
T5 construct: purchased Carna Biosciences

CGK2 = biological target: T6, CGK2 (Homo sapiens, UniProt Q13237)
T6 construct: purchased Carna Biosciences
Excerpt: as §1

LTK = biological target: T7, LTK (Homo sapiens, UniProt P29376)
T7 construct: purchased Carna Biosciences
Excerpt: as §1

ROCK1 = biological target: T8, ROCK1 (Homo sapiens, UniProt Q13464)
T8 construct: purchased Carna Biosciences

MAP3K5_Cascade = biological target: T9, MAP3K5_Cascade (Homo sapiens, UniProt Q99683)
T9 construct: purchased Carna Biosciences
Excerpt: as §1

SPHK2 = biological target: T10, SPHK2 (Homo sapiens, UniProt Q9NRA0)
T10 construct: purchased Carna Biosciences
Excerpt: as §1

TNK1 = biological target: T11, TNK1 (Homo sapiens, UniProt Q13470)
T11 construct: purchased Carna Biosciences
Excerpt: as §1

SRM = biological target: T12, SRM (Homo sapiens, UniProt Q9H3Y6)
T12 construct: purchased Carna Biosciences
Excerpt: as §1

BMX = biological target: T13, BMX (Homo sapiens, UniProt P51813)
T13 construct: purchased Carna Biosciences
Excerpt: as §1

CHK1 = biological target: T14, CHK1 (Homo sapiens, UniProt O14757)
T14 construct: purchased Carna Biosciences
Excerpt: as §1

PRKX = biological target: T15, PRKX (Homo sapiens, UniProt P51817)
T15 construct: purchased Carna Biosciences

HER2 = biological target: T16, HER2 (Homo sapiens, UniProt P04626)
T16 construct: purchased Carna Biosciences
Excerpt: as §1

CDK2/CycE1 = biological target: T17, CDK2/CycE1 (Homo sapiens, UniProt P24941)
T17 construct: purchased Carna Biosciences
Excerpt: as §1

JNK3 = biological target: T18, JNK3 (Homo sapiens, UniProt P53779)
T18 construct: purchased Carna Biosciences

IRAK4 = biological target: T19, IRAK4 (Homo sapiens, UniProt Q9NWZ3)
T19 construct: purchased Carna Biosciences
Excerpt: as §1

SRPK1 = biological target: T20, SRPK1 (Homo sapiens, UniProt Q96SB4)
T20 construct: purchased Carna Biosciences
Excerpt: as §1

PKCα = biological target: T21, PKCα (Homo sapiens, UniProt P17252)
T21 construct: purchased Carna Biosciences

PKCε = biological target: T22, PKCε (Homo sapiens, UniProt Q02156)
T22 construct: purchased Carna Biosciences
Excerpt: as §1

CDK9/CycT1 = biological target: T23, CDK9/CycT1 (Homo sapiens, UniProt P50750)
T23 construct: purchased Carna Biosciences
Excerpt: as §1

PHKG1 = biological target: T24, PHKG1 (Homo sapiens, UniProt Q16816)
T24 construct: purchased Carna Biosciences
Excerpt: as §1

PKCδ = biological target: T25, PKCδ (Homo sapiens, UniProt Q05655)
T25 construct: purchased Carna Biosciences
Excerpt: as §1

MAP2K3_Cascade = biological target: T26, MAP2K3_Cascade (Homo sapiens, UniProt P46734)
T26 construct: purchased Carna Biosciences

SYK = biological target: T27, SYK (Homo sapiens, UniProt P43405)
T27 construct: purchased Carna Biosciences
Excerpt: as §1

EPHA6 = biological target: T28, EPHA6 (Homo sapiens, UniProt Q9UF33)
T28 construct: purchased Carna Biosciences

EPHA5 = biological target: T29, EPHA5 (Homo sapiens, UniProt P54756)
T29 construct: purchased Carna Biosciences

MST2 = biological target: T30, MST2 (Homo sapiens, UniProt Q13188)
T30 construct: purchased Carna Biosciences
Excerpt: as §1

NEK1 = biological target: T31, NEK1 (Homo sapiens, UniProt Q96PY6)
T31 construct: purchased Carna Biosciences
Excerpt: as §1

ACK = biological target: T32, ACK (Homo sapiens, UniProt Q07912)
T32 construct: purchased Carna Biosciences
Excerpt: as §1

IKKβ = biological target: T33, IKKβ (Homo sapiens, UniProt O14920)
T33 construct: purchased Carna Biosciences
Excerpt: as §1

TBK1 = biological target: T34, TBK1 (Homo sapiens, UniProt Q9UHD2)
T34 construct: purchased Carna Biosciences
Excerpt: as §1

p38δ = biological target: T35, p38δ (Homo sapiens, UniProt O15264)
T35 construct: purchased Carna Biosciences
Excerpt: as §1

AMPKα2/β1/γ1 = biological target: T36, AMPKα2/β1/γ1 (Homo sapiens, UniProt P54646)
T36 construct: purchased Carna Biosciences
Excerpt: as §1

p38α = biological target: T37, p38α (Homo sapiens, UniProt Q16539)
T37 construct: purchased Carna Biosciences
Excerpt: as §1

MAP2K7_Cascade = biological target: T38, MAP2K7_Cascade (Homo sapiens, UniProt O14733)
T38 construct: purchased Carna Biosciences
Excerpt: as §1

HIPK1 = biological target: T39, HIPK1 (Homo sapiens, UniProt Q86Z02)
T39 construct: purchased Carna Biosciences
Excerpt: as §1

CaMK1α = biological target: T40, CaMK1α (Homo sapiens, UniProt Q14012)
T40 construct: purchased Carna Biosciences
Excerpt: as §1

PDK1 = biological target: T41, PDK1 (Homo sapiens, UniProt O15530)
T41 construct: purchased Carna Biosciences
Excerpt: as §1

BTK = biological target: T42, BTK (Homo sapiens, UniProt Q06187)
T42 construct: purchased Carna Biosciences
Excerpt: as §1

RET = biological target: T43, RET (Homo sapiens, UniProt P07949)
T43 construct: purchased Carna Biosciences
Excerpt: as §1

FGR = biological target: T44, FGR (Homo sapiens, UniProt P09769)
T44 construct: purchased Carna Biosciences

IKKε = biological target: T45, IKKε (Homo sapiens, UniProt Q14164)
T45 construct: purchased Carna Biosciences
Excerpt: as §1

T33 sequence (O14920 whole entry): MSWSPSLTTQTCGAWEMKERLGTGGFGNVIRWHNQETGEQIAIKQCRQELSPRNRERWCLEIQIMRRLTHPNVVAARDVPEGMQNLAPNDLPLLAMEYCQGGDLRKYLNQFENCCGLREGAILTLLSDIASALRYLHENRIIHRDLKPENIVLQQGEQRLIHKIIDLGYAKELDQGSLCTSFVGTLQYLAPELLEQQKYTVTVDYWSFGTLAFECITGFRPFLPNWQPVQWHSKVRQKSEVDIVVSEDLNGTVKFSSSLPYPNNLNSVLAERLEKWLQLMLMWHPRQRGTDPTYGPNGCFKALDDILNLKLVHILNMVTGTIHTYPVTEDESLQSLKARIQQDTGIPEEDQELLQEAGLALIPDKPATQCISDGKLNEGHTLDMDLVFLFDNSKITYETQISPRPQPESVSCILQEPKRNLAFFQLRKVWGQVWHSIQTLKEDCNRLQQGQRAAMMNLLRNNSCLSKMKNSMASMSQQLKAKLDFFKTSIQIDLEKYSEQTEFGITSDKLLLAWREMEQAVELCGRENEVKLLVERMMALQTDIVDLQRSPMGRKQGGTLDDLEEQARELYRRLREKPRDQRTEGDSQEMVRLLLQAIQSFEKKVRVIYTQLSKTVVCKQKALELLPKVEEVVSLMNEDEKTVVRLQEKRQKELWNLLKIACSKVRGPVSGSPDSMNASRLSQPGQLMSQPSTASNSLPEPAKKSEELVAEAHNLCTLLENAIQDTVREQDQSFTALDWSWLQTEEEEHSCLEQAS
T12 sequence (Q9H3Y6 whole entry): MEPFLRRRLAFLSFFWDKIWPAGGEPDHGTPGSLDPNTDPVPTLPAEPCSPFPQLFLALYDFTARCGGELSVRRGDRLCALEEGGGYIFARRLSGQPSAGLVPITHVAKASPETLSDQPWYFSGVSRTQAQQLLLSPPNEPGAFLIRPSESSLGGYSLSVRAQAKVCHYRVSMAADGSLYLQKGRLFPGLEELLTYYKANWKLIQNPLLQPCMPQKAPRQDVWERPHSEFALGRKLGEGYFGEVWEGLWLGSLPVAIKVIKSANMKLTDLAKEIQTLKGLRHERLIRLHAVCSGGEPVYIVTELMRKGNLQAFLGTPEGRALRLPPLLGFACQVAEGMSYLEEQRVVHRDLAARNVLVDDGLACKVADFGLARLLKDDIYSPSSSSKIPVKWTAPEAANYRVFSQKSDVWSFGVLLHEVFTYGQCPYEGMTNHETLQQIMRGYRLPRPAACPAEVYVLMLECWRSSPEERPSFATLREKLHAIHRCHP
T22 sequence (Q02156 whole entry): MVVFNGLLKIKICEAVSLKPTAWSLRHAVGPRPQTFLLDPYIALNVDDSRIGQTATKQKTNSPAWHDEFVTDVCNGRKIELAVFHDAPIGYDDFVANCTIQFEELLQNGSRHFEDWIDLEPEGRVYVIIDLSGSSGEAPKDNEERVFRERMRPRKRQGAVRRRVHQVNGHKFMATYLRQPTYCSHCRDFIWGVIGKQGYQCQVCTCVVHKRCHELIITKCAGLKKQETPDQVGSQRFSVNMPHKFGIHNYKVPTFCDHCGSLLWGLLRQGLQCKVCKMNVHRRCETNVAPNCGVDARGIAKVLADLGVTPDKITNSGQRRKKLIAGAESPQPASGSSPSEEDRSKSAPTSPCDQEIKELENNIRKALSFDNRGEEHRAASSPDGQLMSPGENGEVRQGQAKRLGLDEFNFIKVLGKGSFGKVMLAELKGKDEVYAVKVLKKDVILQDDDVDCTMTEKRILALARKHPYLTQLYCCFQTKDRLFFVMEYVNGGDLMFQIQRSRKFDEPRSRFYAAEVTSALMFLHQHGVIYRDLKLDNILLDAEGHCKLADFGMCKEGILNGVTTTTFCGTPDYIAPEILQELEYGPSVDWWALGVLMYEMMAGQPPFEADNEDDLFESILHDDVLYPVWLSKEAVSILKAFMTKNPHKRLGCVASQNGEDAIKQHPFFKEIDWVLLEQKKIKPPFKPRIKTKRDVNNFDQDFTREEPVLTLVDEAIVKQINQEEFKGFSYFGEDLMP
T6 sequence (Q13237 whole entry): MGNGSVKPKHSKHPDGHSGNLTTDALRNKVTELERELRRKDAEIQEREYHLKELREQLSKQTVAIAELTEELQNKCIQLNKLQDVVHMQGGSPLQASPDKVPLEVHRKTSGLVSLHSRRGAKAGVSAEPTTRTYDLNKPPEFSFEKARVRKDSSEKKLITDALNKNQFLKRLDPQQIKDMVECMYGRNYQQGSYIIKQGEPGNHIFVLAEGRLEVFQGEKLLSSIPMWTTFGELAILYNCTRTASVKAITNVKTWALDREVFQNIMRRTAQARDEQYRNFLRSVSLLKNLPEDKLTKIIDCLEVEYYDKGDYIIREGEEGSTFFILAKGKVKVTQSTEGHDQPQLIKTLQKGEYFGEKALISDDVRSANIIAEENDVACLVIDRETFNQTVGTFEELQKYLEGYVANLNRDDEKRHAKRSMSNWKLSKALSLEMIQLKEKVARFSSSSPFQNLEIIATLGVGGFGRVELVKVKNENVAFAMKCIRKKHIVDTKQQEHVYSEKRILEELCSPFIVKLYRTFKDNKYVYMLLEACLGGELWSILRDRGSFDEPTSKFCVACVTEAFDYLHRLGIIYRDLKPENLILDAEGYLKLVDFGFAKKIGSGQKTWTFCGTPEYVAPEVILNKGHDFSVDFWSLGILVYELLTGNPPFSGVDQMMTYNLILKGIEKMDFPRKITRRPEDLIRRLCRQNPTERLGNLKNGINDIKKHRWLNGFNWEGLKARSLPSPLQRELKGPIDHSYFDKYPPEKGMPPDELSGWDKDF
T3 sequence (Q96KB5 whole entry): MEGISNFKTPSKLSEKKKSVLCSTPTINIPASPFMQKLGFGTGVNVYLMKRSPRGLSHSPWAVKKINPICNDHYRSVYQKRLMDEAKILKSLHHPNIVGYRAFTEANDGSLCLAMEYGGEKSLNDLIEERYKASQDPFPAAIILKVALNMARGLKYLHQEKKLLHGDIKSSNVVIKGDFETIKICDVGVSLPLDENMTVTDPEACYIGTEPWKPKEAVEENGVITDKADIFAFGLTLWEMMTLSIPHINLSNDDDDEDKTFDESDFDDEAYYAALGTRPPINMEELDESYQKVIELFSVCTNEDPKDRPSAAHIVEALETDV
T31 sequence (Q96PY6 whole entry): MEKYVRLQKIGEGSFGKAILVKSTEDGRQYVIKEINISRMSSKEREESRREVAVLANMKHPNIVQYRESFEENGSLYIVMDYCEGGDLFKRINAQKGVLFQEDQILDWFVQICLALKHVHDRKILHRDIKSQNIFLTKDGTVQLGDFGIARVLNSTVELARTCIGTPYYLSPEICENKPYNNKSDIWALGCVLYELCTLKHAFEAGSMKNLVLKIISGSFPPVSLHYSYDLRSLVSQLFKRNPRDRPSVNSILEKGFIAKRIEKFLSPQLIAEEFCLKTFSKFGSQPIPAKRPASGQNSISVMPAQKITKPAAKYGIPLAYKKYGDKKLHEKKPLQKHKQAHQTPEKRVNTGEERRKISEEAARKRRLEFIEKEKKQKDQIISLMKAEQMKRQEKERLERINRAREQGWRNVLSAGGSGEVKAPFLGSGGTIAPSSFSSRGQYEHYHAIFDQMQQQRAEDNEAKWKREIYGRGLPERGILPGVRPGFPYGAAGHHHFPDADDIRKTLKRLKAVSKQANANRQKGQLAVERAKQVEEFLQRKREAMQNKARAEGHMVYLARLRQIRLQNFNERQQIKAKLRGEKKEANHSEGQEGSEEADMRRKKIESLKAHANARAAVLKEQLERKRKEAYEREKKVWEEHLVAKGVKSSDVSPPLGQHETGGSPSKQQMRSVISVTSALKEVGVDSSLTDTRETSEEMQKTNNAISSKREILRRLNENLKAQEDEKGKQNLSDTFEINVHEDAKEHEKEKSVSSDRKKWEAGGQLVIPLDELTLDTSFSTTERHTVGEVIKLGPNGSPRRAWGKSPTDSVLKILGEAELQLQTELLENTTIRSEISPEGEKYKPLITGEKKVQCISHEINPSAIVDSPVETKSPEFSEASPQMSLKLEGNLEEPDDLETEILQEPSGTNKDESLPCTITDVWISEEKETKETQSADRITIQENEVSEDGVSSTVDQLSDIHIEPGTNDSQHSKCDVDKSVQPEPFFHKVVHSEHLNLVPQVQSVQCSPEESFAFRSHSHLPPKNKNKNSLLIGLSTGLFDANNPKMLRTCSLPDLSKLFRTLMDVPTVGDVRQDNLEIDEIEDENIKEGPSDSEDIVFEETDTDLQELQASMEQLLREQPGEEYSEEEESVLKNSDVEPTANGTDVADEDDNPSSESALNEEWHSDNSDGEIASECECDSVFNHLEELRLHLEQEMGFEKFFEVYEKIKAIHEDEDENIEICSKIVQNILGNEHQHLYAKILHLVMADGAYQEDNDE

Compound `COc1ccc(/C=C2\SC(=S)NC2=O)cc1C#C[Si](C)(C)C` [FINDY] has an inhibition at 10 µM (NuaK2) of -9.3%, an inhibition at 10 µM (EEF2K) of -3.7% and an inhibition at 10 µM (PBK) of 14.6%. For the same compound, the inhibition at 10 µM (HIPK2) was 6.2%, the inhibition at 10 µM (CaMK2γ) was -4.6% and the inhibition at 10 µM (CGK2) was 14.6%. The inhibition at 10 µM (LTK) was 4.6%, the inhibition at 10 µM (ROCK1) was 6.8% and the inhibition at 10 µM (MAP3K5_Cascade) was 32.1%. For the same compound, the inhibition at 10 µM (SPHK2) was 4.9%, the inhibition at 10 µM (TNK1) was 7.3% and the inhibition at 10 µM (SRM) was 32.9%. The inhibition at 10 µM (BMX) was 10.5%, the inhibition at 10 µM (CHK1) was -119% and the inhibition at 10 µM (PRKX) was 3%. For the same compound, the inhibition at 10 µM (HER2) was -0.1%, the inhibition at 10 µM (CDK2/CycE1) was 64.9% and the inhibition at 10 µM (JNK3) was 4.5%. For the same compound, the inhibition at 10 µM (IRAK4) was -0.8%, the inhibition at 10 µM (SRPK1) was 7.5% and the inhibition at 10 µM (PKCα) was 0.6%. For the same compound, the inhibition at 10 µM (PKCε) was -6.6%, the inhibition at 10 µM (CDK9/CycT1) was 3.1% and the inhibition at 10 µM (PHKG1) was 8.9%. The inhibition at 10 µM (PKCδ) was -1.3%, the inhibition at 10 µM (MAP2K3_Cascade) was 26% and the inhibition at 10 µM (SYK) was 72.8%. It also gave an inhibition at 10 µM (EPHA6) of 59.4%, an inhibition at 10 µM (EPHA5) of 18.4% and an inhibition at 10 µM (MST2) of -5.7%. It also gave an inhibition at 10 µM (NEK1) of 37.3%, an inhibition at 10 µM (ACK) of -2.2% and an inhibition at 10 µM (IKKβ) of -3.5%. The inhibition at 10 µM (TBK1) was 4%, the inhibition at 10 µM (p38δ) was 11.9% and the inhibition at 10 µM (AMPKα2/β1/γ1) was 1.7%. It also gave an inhibition at 10 µM (p38α) of 10.6%, an inhibition at 10 µM (MAP2K7_Cascade) of 14.4% and an inhibition at 10 µM (HIPK1) of 11.8%. For the same compound, the inhibition at 10 µM (CaMK1α) was -4.1%, the inhibition at 10 µM (PDK1) was -2.6% and the inhibition at 10 µM (BTK) was 57.9%. For the same compound, the inhibition at 10 µM (RET) was 12.6%, the inhibition at 10 µM (FGR) was 5.3% and the inhibition at 10 µM (IKKε) was -2%.
